Assay results from patent US7192924B2, “Corticotropin releasing factor 2 receptor agonists” (priority 2002, dated 2007).
Peptide text beside a SMILES is read from it.

Legend:
CRF2R = biological target: T1, CRF2R (Homo sapiens, UniProt Q13324); assay: CRF2R agonist activity (EC50, Emax), called comparative CRF binding; type: cell-based; conditions: read-out: CRF2R EC50
T1 sequence (Q13324 1-411): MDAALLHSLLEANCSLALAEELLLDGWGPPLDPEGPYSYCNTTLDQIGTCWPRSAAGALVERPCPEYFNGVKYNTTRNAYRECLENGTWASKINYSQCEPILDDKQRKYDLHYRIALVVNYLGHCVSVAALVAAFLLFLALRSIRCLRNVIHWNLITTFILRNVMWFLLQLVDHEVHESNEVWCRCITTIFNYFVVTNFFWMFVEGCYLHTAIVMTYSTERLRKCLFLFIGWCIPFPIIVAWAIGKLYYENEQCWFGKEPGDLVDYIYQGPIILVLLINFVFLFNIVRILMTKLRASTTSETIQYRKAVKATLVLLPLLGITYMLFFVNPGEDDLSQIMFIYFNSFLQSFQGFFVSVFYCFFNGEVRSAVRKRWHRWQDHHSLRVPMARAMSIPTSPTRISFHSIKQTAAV
Description: (§1) The pharmacological activity and selectivity of the peptides of present invention can be determined using published test procedures. See, e.g, U.S. patent application Ser. No. 09/799,978. Because CRF2R and CRF1R are homologous proteins, it is expected that a certain proportion of agonists for CRF2R will also function as agonists of CRF1R. As discussed above, activation of CRF1R induces activation of the HPA axis since increased corticosteroid production leads to skeletal muscle atrophy. In most cases in which an increase in muscle mass or function is desired, it is not desirable to activate the HPA axis.
(§2) Because it is desirable to discriminate binding between CRF2R, as compared with CRF1R, the assays described above may be conducted using a cell, or membrane from a cell, which expresses only CRF2R or the assays can be conducted with a recombinant source of CRF2R. Cells expressing both forms of CRFR may be modified using homologous recombination to inactivate or otherwise disable the CRF1R gene. Alternatively, if the source of CRFR contains more than one CRFR type, the background signal produced by the receptor which is not of interest must be subtracted from the signal obtained in the assay. […] Known antagonists of CRFRs include, but, are not limited to, antalarmin (CRF1R selective), antisauvagine-30 (CRF2R selective) and astressin (nonselective for CRF1R/CRF2R).
(§3) Cell-based assays include the steps of contacting cells which express CRF1R or CRF2R with a peptide of the present invention or control and measuring activation of the CRFR by measuring the expression or activity of components of the CRFR signal transduction pathways.
(§4) As described in the background section above, CRFRs appear to couple through several different pathways including Gαs, Gαq or Gαi, depending upon the cell type. It is thought that agonist activation of CRFR allows the receptor to signal via any of these pathways, provided that the necessary pathway components are present in the particular cell type. Thus, to assay a particular peptide of the present invention for CRFR activation, an assay can use any of the signal transduction pathways as the readout even if the relevant cell type for treatment, in vivo, couples CRFR to skeletal muscle atrophy via a different pathway. […] Assays for measuring activation of these signaling pathways are known in the art.
(§5) For example, after contact with a peptide of the present invention, lysates of the cells can be prepared and assayed for induction of cAMP. cAMP is induced in response to Gαs activation. Because Gαs is activated by receptors other than CRFR and because a test peptide may be exerting its effect through CRFRs or by another mechanism, two control comparisons are relevant for determining whether the peptide increases levels of cAMP via activation of a CRFR. One control compares the cAMP level of cells contacted with the peptide and the cAMP level of cells contacted with a control compound (i.e., the vehicle in which the peptide is dissolved).
(§6) In one example, cAMP induction is measured with the use of DNA constructs containing the cAMP responsive element linked to any of a variety of reporter genes can be introduced into cells expressing CRFRs. Such reporter genes include, but are not limited to, chloramphenicol acetyltransferase (CAT), luciferase, glucuronide synthetase, growth hormone, fluorescent proteins (e.g., Green Fluorescent Protein), or alkaline phosphatase. Following exposure of the cells to the peptide, the level of reporter gene expression can be quantitated to determine the peptide's ability to increase cAMP levels and thus determine the peptide's ability to activate the CRFR.
(§7) In addition to using cells expressing full length CRFRs, cells can be engineered which express CRFRs containing the ligand binding domain of the receptor coupled to, or physically modified to contain, reporter elements or to interact with signaling proteins.

CRF1R = biological target: T2, CRF1R (Homo sapiens, UniProt P34998); assay: CRF1R agonist activity (EC50, Emax), called comparative CRF binding; type: cell-based; conditions: read-out: CRF1R EC50
T2 sequence (P34998 24-415): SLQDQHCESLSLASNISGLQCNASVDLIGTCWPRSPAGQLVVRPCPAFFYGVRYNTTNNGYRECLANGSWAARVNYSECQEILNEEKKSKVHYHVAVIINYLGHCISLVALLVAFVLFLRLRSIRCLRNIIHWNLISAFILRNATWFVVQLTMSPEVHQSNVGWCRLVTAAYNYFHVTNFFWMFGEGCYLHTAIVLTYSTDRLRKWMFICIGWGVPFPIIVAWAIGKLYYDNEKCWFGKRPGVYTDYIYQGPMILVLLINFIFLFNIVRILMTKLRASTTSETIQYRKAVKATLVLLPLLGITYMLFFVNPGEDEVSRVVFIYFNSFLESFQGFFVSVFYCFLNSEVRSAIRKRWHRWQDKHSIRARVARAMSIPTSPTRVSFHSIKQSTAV
Description: as §1, §2, §3, §4, §5, §6, §7

CC[C@H](C)[C@H](N)C(=O)N[C@H](C(=O)N[C@@H](CC(C)C)C(=O)N[C@@H](CO)C(=O)N[C@@H](CC(C)C)C(=O)N[C@@H](CC(=O)O)C(=O)N[C@H](C(=O)N1CCC[C@H]1C(=O)N[C@H](C(=O)NCC(=O)N[C@@H](CC(C)C)C(=O)N[C@@H](CC(C)C)C(=O)N[C@@H](CCC(N)=O)C(=O)N[C@H](C(=O)N[C@@H](CC(C)C)C(=O)N[C@@H](CC(C)C)C(=O)N[C@@H](CCC(=O)O)C(=O)N[C@@H](CCC(N)=O)C(=O)N[C@@H](CCC(=O)O)C(=O)N[C@@H](CCCNC(=N)N)C(=O)N[C@@H](CCC(N)=O)C(=O)N[C@@H](CCC(=O)O)C(=O)N[C@@H](C)C(=O)N[C@@H](C)C(=O)N[C@@H](CCCNC(=N)N)C(=O)N[C@@H](CCC(=O)O)C(=O)N[C@@H](CCC(N)=O)C(=O)N[C@@H](C)C(=O)N[C@H](C(=O)N[C@H](C(=O)N[C@@H](CC(N)=O)C(=O)N[C@@H](C)C(=O)N[C@@H](CCCNC(=N)N)C(=O)N[C@H](C(=O)N[C@@H](CC(C)C)C(=O)N[C@@H](C)C(=O)N[C@@H](CCCNC(=N)N)C(=O)N[C@H](C(N)=O)C(C)C)[C@@H](C)CC)[C@@H](C)O)[C@@H](C)O)[C@@H](C)CC)[C@@H](C)CC)C(C)C)C(C)C [compound 118] (H-IVLSLDVPIGLLQILLEQERQEAAREQATTNARILARV-NH2; N-terminus assumed)
EC50 (CRF2R): 14.6 nM
EC50 (CRF1R): > 100 nM

CC[C@H](C)[C@H](N)C(=O)N[C@H](C(=O)N[C@@H](CC(C)C)C(=O)N[C@@H](CO)C(=O)N[C@@H](CC(C)C)C(=O)N[C@@H](CC(=O)O)C(=O)N[C@H](C(=O)N1CCC[C@H]1C(=O)N[C@H](C(=O)NCC(=O)N[C@@H](CC(C)C)C(=O)N[C@@H](CC(C)C)C(=O)N[C@@H](CCC(N)=O)C(=O)N[C@H](C(=O)N[C@@H](CC(C)C)C(=O)N[C@@H](CC(C)C)C(=O)N[C@@H](CCC(=O)O)C(=O)N[C@@H](CCC(N)=O)C(=O)N[C@@H](CCC(=O)O)C(=O)N[C@@H](CCCCN)C(=O)N[C@@H](C)C(=O)N[C@@H](CCCNC(=N)N)C(=O)N[C@@H](C)C(=O)N[C@@H](C)C(=O)N[C@@H](CCCNC(=N)N)C(=O)N[C@@H](CCC(=O)O)C(=O)N[C@@H](CCC(N)=O)C(=O)N[C@@H](C)C(=O)N[C@H](C(=O)N[C@H](C(=O)N[C@@H](CC(N)=O)C(=O)N[C@@H](C)C(=O)N[C@@H](CCCNC(=N)N)C(=O)N[C@H](C(=O)N[C@@H](CC(C)C)C(=O)N[C@@H](C)C(=O)N[C@@H](CCCNC(=N)N)C(=O)N[C@H](C(N)=O)C(C)C)[C@@H](C)CC)[C@@H](C)O)[C@@H](C)O)[C@@H](C)CC)[C@@H](C)CC)C(C)C)C(C)C [compound 121] (H-IVLSLDVPIGLLQILLEQEKARAAREQATTNARILARV-NH2)
EC50 (CRF2R): 5.67 nM
EC50 (CRF1R): > 100 nM

CC[C@H](C)[C@H](N)C(=O)N[C@H](C(=O)N[C@@H](CC(C)C)C(=O)N[C@@H](CO)C(=O)N[C@@H](CC(C)C)C(=O)N[C@@H](CC(=O)O)C(=O)N[C@H](C(=O)N1CCC[C@H]1C(=O)N[C@H](C(=O)NCC(=O)N[C@@H](CC(C)C)C(=O)N[C@@H](CC(C)C)C(=O)N[C@@H](CCC(N)=O)C(=O)N[C@H](C(=O)N[C@@H](CC(C)C)C(=O)N[C@@H](CC(C)C)C(=O)N[C@@H](CCC(=O)O)C(=O)N[C@@H](CCC(N)=O)C(=O)N[C@@H](C)C(=O)N[C@@H](CCCNC(=N)N)C(=O)N[C@@H](C)C(=O)N[C@@H](CCC(=O)O)C(=O)N[C@@H](C)C(=O)N[C@@H](C)C(=O)N[C@@H](CCCNC(=N)N)C(=O)N[C@@H](CCC(=O)O)C(=O)N[C@@H](CCC(N)=O)C(=O)N[C@@H](C)C(=O)N[C@H](C(=O)N[C@H](C(=O)N[C@@H](CC(N)=O)C(=O)N[C@@H](C)C(=O)N[C@@H](CCCNC(=N)N)C(=O)N[C@H](C(=O)N[C@@H](CC(C)C)C(=O)N[C@@H](C)C(=O)N[C@@H](CCCNC(=N)N)C(=O)N[C@H](C(N)=O)C(C)C)[C@@H](C)CC)[C@@H](C)O)[C@@H](C)O)[C@@H](C)CC)[C@@H](C)CC)C(C)C)C(C)C [compound 122] (H-IVLSLDVPIGLLQILLEQARAEAAREQATTNARILARV-NH2; N-terminus assumed)
EC50 (CRF2R): 3.31 nM
EC50 (CRF1R): ≥ 1000 nM

CC[C@H](C)[C@H](N)C(=O)N[C@H](C(=O)N[C@@H](CC(C)C)C(=O)N[C@@H](CO)C(=O)N[C@@H](CC(C)C)C(=O)N[C@@H](CC(=O)O)C(=O)N[C@H](C(=O)N1CCC[C@H]1C(=O)N[C@H](C(=O)NCC(=O)N[C@@H](CC(C)C)C(=O)N[C@@H](CC(C)C)C(=O)N[C@@H](CCC(N)=O)C(=O)N[C@H](C(=O)N[C@@H](CC(C)C)C(=O)N[C@@H](CC(C)C)C(=O)N[C@@H](CCC(=O)O)C(=O)N[C@@H](CCC(N)=O)C(=O)N[C@@H](C)C(=O)N[C@@H](CCCNC(=N)N)C(=O)N[C@@H](CCC(N)=O)C(=O)N[C@@H](CCC(=O)O)C(=O)N[C@@H](C)C(=O)N[C@@H](C)C(=O)N[C@@H](CCCNC(=N)N)C(=O)N[C@@H](CCC(=O)O)C(=O)N[C@@H](CCC(N)=O)C(=O)N[C@@H](C)C(=O)N[C@H](C(=O)N[C@H](C(=O)N[C@@H](CC(N)=O)C(=O)N[C@@H](C)C(=O)N[C@@H](CCCNC(=N)N)C(=O)N[C@H](C(=O)N[C@@H](CC(C)C)C(=O)N[C@@H](C)C(=O)N[C@@H](CCCNC(=N)N)C(=O)N[C@H](C(N)=O)C(C)C)[C@@H](C)CC)[C@@H](C)O)[C@@H](C)O)[C@@H](C)CC)[C@@H](C)CC)C(C)C)C(C)C [compound 123] (H-IVLSLDVPIGLLQILLEQARQEAAREQATTNARILARV-NH2; N-terminus assumed)
EC50 (CRF2R): 3.49 nM
EC50 (CRF1R): > 1000 nM

CC[C@H](C)[C@H](N)C(=O)N[C@H](C(=O)N[C@@H](CC(C)C)C(=O)N[C@@H](CO)C(=O)N[C@@H](CC(C)C)C(=O)N[C@@H](CC(=O)O)C(=O)N[C@H](C(=O)N1CCC[C@H]1C(=O)N[C@H](C(=O)NCC(=O)N[C@@H](CC(C)C)C(=O)N[C@@H](CC(C)C)C(=O)N[C@@H](CCC(N)=O)C(=O)N[C@H](C(=O)N[C@@H](CC(C)C)C(=O)N[C@@H](CC(C)C)C(=O)N[C@@H](CCC(=O)O)C(=O)N[C@@H](CCC(N)=O)C(=O)N[C@@H](CCC(=O)O)C(=O)N[C@@H](CCCCN)C(=O)N[C@@H](CCC(N)=O)C(=O)N[C@@H](CCC(=O)O)C(=O)N[C@@H](C)C(=O)N[C@@H](C)C(=O)N[C@@H](CCCNC(=N)N)C(=O)N[C@@H](CCC(=O)O)C(=O)N[C@@H](CCC(N)=O)C(=O)N[C@@H](C)C(=O)N[C@H](C(=O)N[C@H](C(=O)N[C@@H](CC(N)=O)C(=O)N[C@@H](C)C(=O)N[C@@H](CCCNC(=N)N)C(=O)N[C@H](C(=O)N[C@@H](CC(C)C)C(=O)N[C@@H](C)C(=O)N[C@@H](CCCNC(=N)N)C(=O)N[C@H](C(N)=O)C(C)C)[C@@H](C)CC)[C@@H](C)O)[C@@H](C)O)[C@@H](C)CC)[C@@H](C)CC)C(C)C)C(C)C [compound 125] (H-IVLSLDVPIGLLQILLEQEKQEAAREQATTNARILARV-NH2; N-terminus assumed)
EC50 (CRF2R): 4.47 nM
EC50 (CRF1R): > 100 nM
